Assay results from patent publication US8999940B2 (Ipsen Pharma S.A.S., priority 2008, dated 2015).
Where a SMILES comes first, the peptide text is derived from it. [ ]: non-standard residue; d: D form. The star is where a group is joined. Desaminotyrosyl = O=C(CCc1ccc(O)cc1)*; Nle = CCCC[C@H](N)C(=O)O; Ac5c = NC1(C(=O)O)CCCC1; Aib = CC(C)(N)C(=O)O

These compounds were tested against T1, human recombinant GIP receptor (Homo sapiens, UniProt P48546) (assay: In vitro hGIP receptor binding assay).
T1 construct: expressed in transfected cells; host or cells: CHO-K1 clonal cells (membrane preparation)
T1 sequence (P48546 22-466): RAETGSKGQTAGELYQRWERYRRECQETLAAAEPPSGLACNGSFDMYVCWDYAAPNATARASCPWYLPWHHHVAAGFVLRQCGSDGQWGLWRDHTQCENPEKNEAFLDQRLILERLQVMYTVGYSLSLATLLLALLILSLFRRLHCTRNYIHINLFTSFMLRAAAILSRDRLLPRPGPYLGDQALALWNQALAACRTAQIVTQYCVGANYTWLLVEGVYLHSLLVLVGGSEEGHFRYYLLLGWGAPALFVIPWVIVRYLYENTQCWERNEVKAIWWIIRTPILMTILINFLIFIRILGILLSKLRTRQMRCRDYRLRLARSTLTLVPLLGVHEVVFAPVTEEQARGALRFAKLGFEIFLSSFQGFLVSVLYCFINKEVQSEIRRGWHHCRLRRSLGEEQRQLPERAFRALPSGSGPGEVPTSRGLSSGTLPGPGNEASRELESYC
Protocol: A. In Vitro hGIP Receptor Binding Assay […] The incubations were terminated by rapid filtration through GF/C filters (pre-soaked in 0.5% polyethylenimine) using a Brandel filtration manifold. Each tube and filter were then washed three times with 5-ml aliquots of ice-cold buffer.

Q: With CCCC[C@H](NC(=O)[C@H](C)NC(=O)[C@@H](NC(=O)[C@H](CO)NC(=O)[C@H](Cc1ccc(O)cc1)NC(=O)[C@H](CC(=O)O)NC(=O)[C@H](CO)NC(=O)C1(NC(=O)[C@H](Cc2ccccc2)NC(=O)[C@@H](NC(=O)CNC(=O)[C@H](CCC(=O)O)NC(=O)C(C)(C)NC(=O)CCc2ccc(O)cc2)[C@@H](C)O)CCCC1)[C@@H](C)CC)C(=O)N[C@@H](CC(=O)O)C(=O)N[C@@H](CCCCN)C(=O)N[C@H](C(=O)N[C@@H](Cc1c[nH]cn1)C(=O)N[C@@H](CCC(N)=O)C(=O)N[C@@H](CCC(N)=O)C(=O)N[C@@H](CC(=O)O)C(=O)N[C@@H](Cc1ccccc1)C(=O)N[C@H](C(=O)N[C@@H](CC(N)=O)C(=O)N[C@@H](Cc1c[nH]c2ccccc12)C(=O)N[C@@H](CC(C)C)C(=O)N[C@@H](CC(C)C)C(=O)N[C@@H](C)C(=O)N[C@@H](CCC(N)=O)C(=O)N[C@@H](CCCCN)C(N)=O)C(C)C)[C@@H](C)CC [Example 1, (4Hppa^1, Aib^2, A5c^7, Nle^14)hGIP(1-30)-NH2] (Desaminotyrosyl-[Aib]EGTF[Ac5c]SDYSIA[Nle]DKIHQQDFVNWLLAQK-NH2) as the compound, how does the Ki read?
A: The Ki was 12.6 nM.

Q: For CCCC[C@H](NC(=O)[C@H](C)NC(=O)[C@@H](NC(=O)C(C)(C)NC(=O)[C@H](Cc1ccc(O)cc1)NC(=O)[C@H](CC(=O)O)NC(=O)[C@H](CO)NC(=O)[C@@H](NC(=O)[C@H](Cc1ccccc1)NC(=O)[C@@H](NC(=O)CNC(=O)[C@H](CCC(=O)O)NC(=O)C(C)(C)NC(=O)CCc1ccc(O)cc1)[C@@H](C)O)[C@@H](C)CC)[C@@H](C)CC)C(=O)N[C@@H](CC(=O)O)C(=O)N[C@@H](CCCCN)C(=O)N[C@H](C(=O)N[C@@H](Cc1c[nH]cn1)C(=O)N[C@@H](CCC(N)=O)C(=O)N[C@@H](CCC(N)=O)C(=O)N[C@@H](CC(=O)O)C(=O)N[C@@H](Cc1ccccc1)C(=O)N[C@H](C(=O)N[C@@H](CC(N)=O)C(=O)N[C@@H](Cc1c[nH]c2ccccc12)C(=O)N[C@@H](CC(C)C)C(=O)N[C@@H](CC(C)C)C(=O)N[C@@H](C)C(=O)N[C@@H](CCC(N)=O)C(=O)N[C@@H](CCCCN)C(N)=O)C(C)C)[C@@H](C)CC [Example 2, (4Hppa^1, Aib^2,11, Nle^14)hGIP(1-30)-NH2] (Desaminotyrosyl-[Aib]EGTFISDY[Aib]IA[Nle]DKIHQQDFVNWLLAQK-NH2), which Ki is on record?
A: The Ki was 20.3 nM.

Q: How did the Ki turn out when CC[C@H](C)[C@H](NC(=O)[C@H](CO)NC(=O)[C@H](Cc1ccc(O)cc1)NC(=O)[C@H](CC(=O)O)NC(=O)[C@H](CO)NC(=O)C1(NC(=O)[C@H](Cc2ccccc2)NC(=O)[C@@H](NC(=O)CNC(=O)[C@H](CCC(=O)O)NC(=O)C(C)(C)NC(=O)CCc2ccc(O)cc2)[C@@H](C)O)CCCC1)C(=O)N[C@@H](C)C(=O)N[C@@H](CCSC)C(=O)N[C@@H](CC(=O)O)C(=O)N[C@@H](CCCCN)C(=O)N[C@H](C(=O)N[C@@H](Cc1c[nH]cn1)C(=O)N[C@@H](CCC(N)=O)C(=O)N[C@@H](CCC(N)=O)C(=O)N[C@@H](CC(=O)O)C(=O)N[C@@H](Cc1ccccc1)C(=O)N[C@H](C(=O)N[C@@H](CC(N)=O)C(=O)N[C@@H](Cc1c[nH]c2ccccc12)C(=O)N[C@@H](CC(C)C)C(=O)N[C@@H](CC(C)C)C(=O)N[C@@H](C)C(=O)N[C@@H](CCC(N)=O)C(=O)N[C@@H](CCCCN)C(N)=O)C(C)C)[C@@H](C)CC [Example 3, (4Hppa^1, Aib^2, A5c^7)hGIP(1-30)-NH2] was run?
A: The Ki was 5 nM.

Q: CC[C@H](C)[C@H](NC(=O)[C@H](CCCCN)NC(=O)[C@H](CC(=O)O)NC(=O)[C@H](CCSC)NC(=O)[C@H](C)NC(=O)[C@@H](NC(=O)C(C)(C)NC(=O)[C@H](Cc1ccc(O)cc1)NC(=O)[C@H](CC(=O)O)NC(=O)[C@H](CO)NC(=O)[C@@H](NC(=O)[C@H](Cc1ccccc1)NC(=O)[C@@H](NC(=O)CNC(=O)[C@H](CCC(=O)O)NC(=O)C(C)(C)NC(=O)CCc1ccc(O)cc1)[C@@H](C)O)[C@@H](C)CC)[C@@H](C)CC)C(=O)N[C@@H](Cc1c[nH]cn1)C(=O)N[C@@H](CCC(N)=O)C(=O)N[C@@H](CCC(N)=O)C(=O)N[C@@H](CC(=O)O)C(=O)N[C@@H](Cc1ccccc1)C(=O)N[C@H](C(=O)N[C@@H](CC(N)=O)C(=O)N[C@@H](Cc1c[nH]c2ccccc12)C(=O)N[C@@H](CC(C)C)C(=O)N[C@@H](CC(C)C)C(=O)N[C@@H](C)C(=O)N[C@@H](CCC(N)=O)C(=O)N[C@@H](CCCCN)C(N)=O)C(C)C [Example 4, (4Hppa^1, Aib^2,11)hGIP(1-30)-NH2] (Desaminotyrosyl-[Aib]EGTFISDY[Aib]IAMDKIHQQDFVNWLLAQK-NH2) was tested. Which Ki did it give?
A: Its Ki is 15.4 nM.

Q: Which Ki does the source give for CC[C@H](C)[C@H](NC(=O)[C@H](CO)NC(=O)[C@H](Cc1ccc(O)cc1)NC(=O)[C@H](CC(=O)O)NC(=O)[C@H](CO)NC(=O)[C@@H](NC(=O)[C@H](Cc1ccccc1)NC(=O)[C@@H](NC(=O)CNC(=O)[C@H](CCC(=O)O)NC(=O)C(C)(C)NC(=O)CCc1ccc(O)cc1)[C@@H](C)O)[C@@H](C)CC)C(=O)N[C@@H](C)C(=O)N[C@@H](CCSC)C(=O)N[C@@H](CC(=O)O)C(=O)N[C@@H](CCCCN)C(=O)N[C@H](C(=O)N[C@@H](Cc1c[nH]cn1)C(=O)N[C@@H](CCC(N)=O)C(=O)N[C@@H](CCC(N)=O)C(=O)N[C@@H](CC(=O)O)C(=O)N[C@@H](Cc1ccccc1)C(=O)N[C@H](C(=O)N[C@@H](CC(N)=O)C(=O)N[C@@H](Cc1c[nH]c2ccccc12)C(=O)N[C@@H](CC(C)C)C(=O)N[C@@H](CC(C)C)C(=O)N[C@@H](C)C(=O)N[C@@H](CCC(N)=O)C(=O)N[C@@H](CCCCN)C(N)=O)C(C)C)[C@@H](C)CC [Example 6, (4Hppa^1, Aib^2)hGIP(1-30)-NH2] here?
A: The Ki was 1.58 nM.

Q: How did the Ki turn out when CCCC[C@H](NC(=O)[C@H](C)NC(=O)[C@@H](NC(=O)C1(NC(=O)[C@H](Cc2ccc(O)cc2)NC(=O)[C@H](CC(=O)O)NC(=O)[C@H](CO)NC(=O)[C@@H](NC(=O)[C@H](Cc2ccccc2)NC(=O)[C@@H](NC(=O)CNC(=O)[C@H](CCC(=O)O)NC(=O)C(C)(C)NC(=O)[C@@H](N)Cc2ccc(O)c(Br)c2)[C@@H](C)O)[C@@H](C)CC)CCCC1)[C@@H](C)CC)C(=O)N[C@@H](CC(=O)O)C(=O)N[C@@H](CCCCN)C(=O)N[C@H](C(=O)N[C@@H](Cc1c[nH]cn1)C(=O)N[C@@H](CCC(N)=O)C(=O)N[C@@H](CCC(N)=O)C(=O)N[C@@H](CC(=O)O)C(=O)N[C@@H](Cc1ccccc1)C(=O)N[C@H](C(=O)N[C@@H](CC(N)=O)C(=O)N[C@@H](Cc1c[nH]c2ccccc12)C(=O)N[C@@H](CC(C)C)C(=O)N[C@@H](CC(C)C)C(=O)N[C@@H](C)C(=O)N[C@@H](CCC(N)=O)C(=O)N[C@@H](CCCCN)C(=O)NCC(=O)N[C@@H](CCCCN)C(=O)N[C@@H](CCCCN)C(=O)N[C@@H](CC(N)=O)C(=O)N[C@@H](CC(=O)O)C(=O)N[C@@H](Cc1c[nH]c2ccccc12)C(=O)N[C@@H](CCCCN)C(=O)N[C@@H](Cc1c[nH]cn1)C(=O)N[C@@H](CC(N)=O)C(=O)N[C@H](C(=O)N[C@H](C(=O)N[C@@H](CCC(N)=O)C(=O)N[C@@H](Cc1c[nH]cn1)C(=O)O)[C@@H](C)O)[C@@H](C)CC)C(C)C)[C@@H](C)CC [Example 71, (3Br-Tyr^1, Aib^2, A5c^11, Nle^14, His^43)hGIP(1-43)-OH] was run?
A: The Ki was 1.09 nM.
